Assay results as given in patent publication US9409961B2, “Cell penetrating peptides to target EIF4E” (Hoffmann-La Roche Inc., priority 2012, dated 2016).
pIC50: −log10 of the molar value. Where two headings read alike, the source gives them in different places. Square brackets hold non-standard residues; d marks the D form. Peptide text beside a SMILES is read from it. tBuAla = CC(C)(C)C[C@H](N)C(=O)O; Nle = CCCC[C@H](N)C(=O)O

Target: T1, human eIF4E (Homo sapiens, UniProt P06730)
T1 construct: made in house
Experiment: biochemical assay of peptide binding to human eIF4E (displacement of biotin labeled 4G2 peptide)
Settings: for IC50: IC50 (μM)
Protocol: A biochemical assay was run to test peptide binding to human eIF4E.
Human eIF4E (aa 28-217, SEQ ID NO: 87) with a C-terminal His tag (HH-eIF4E, SEQ ID NO: 88) was expressed in E. coli in inclusion bodies. The protein was solubilized with 8 M urea and purified under denaturing conditions using nickel-charged HisTrap HP columns (GE Healthcare). The protein was refolded by diluting to approximately 0.25 mg/mL with 6 M urea, 20 mM Hepes pH 7.0, 500 mM NaCl, 1 mM DTT, 1 mM EDTA, and 0.5 M arginine.HCl, and then dialyzing overnight into the same buffer without the urea. The protein was further dialyzed into 20 mM Hepes pH 6.5, 50 mM NaCl, 1 mM EDTA, and 1 mM DTT, filtered, and then concentrated using Hitrap SP sepharose FF columns (GE Healthcare). The protein was dialyzed into 20 mM Hepes pH 7.0, 500 mM NaCl, 5 mM DTT, and 10% glycerol and stored at −80° C. until use.
Test peptides (1.6 mM stock in DMSO) were diluted 3 fold in series in DMSO and solutions were diluted 4 fold in Assay Buffer (50 mM NaPi, pH 6.5, 50 mM KCl, 1 mM DTT, 0.004% NP40 and 0.5 mg/ml gammaglobulin). Six microliters per well of diluted peptide solutions and 12 microliters per well of 187.5 nM HH-eIF4E in Assay Buffer were added to 384-well polypropylene microplates (Matrix, Thermal Scientific). Twelve microliters per well of 187.5 nM biotin labeled 4G2 peptide (Ac-[…]Aha-Bio)-NH2 (SEQ ID NO: 91) 1:2 TFA) in Assay Buffer was added. The samples were incubated at room temperature for 20 minutes.
Six microliters per well of 4.8 nM Eu-streptavidin (Columbia Biosciences) and 48 nM Allophycocyanin-anti His antibody (Columbia Biosciences) in Assay Buffer (without DTT) were then added and the samples were incubated at room temperature for 30 min. Assay signals were monitored by reading emission fluorescence at 665 nm on an Envision Reader (PerkinElmer Life and Analytical Sciences). IC50 values were calculated using Condoseo software (Genedata AG, Basel, Switzerland).

[1] = Table 2a, cell penetrating peptides with the Y----LL-F and YWLLALFVY motifs
[2] = Table 2, cell-penetrating peptides with the Y----LL-F motif
[3] = Table 3, cell-penetrating peptides without the Y----LL-F motif

T1 sequence (P06730 with tags, fused parts or gaps): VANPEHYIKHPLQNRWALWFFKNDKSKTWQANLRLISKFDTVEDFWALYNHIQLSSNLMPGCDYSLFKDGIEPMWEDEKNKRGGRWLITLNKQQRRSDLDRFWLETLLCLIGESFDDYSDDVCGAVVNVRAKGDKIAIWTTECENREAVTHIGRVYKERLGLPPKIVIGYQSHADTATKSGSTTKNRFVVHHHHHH

Compound | IC50 [1] | IC50 [2] | further results
Ac-LAYWLLALFVYMWTDLRLFKKRPKP-NH2 [SEQ ID NO: 31] | 4.35 µM | – | –
Ac-MVKYKIASLLLFLFVAMWSDVALAKKRPKP-NH2 [SEQ ID NO: 17] | – | 12.5 µM | –
Ac-MANLAYWLLALFVYRWTDLRLFKKRPKP-NH2 [SEQ ID NO: 41] | 3.48 µM | – | –
CCCC[C@H](NC(=O)[C@H](CC(C)C)NC(=O)[C@H](CC(=O)O)NC(=O)[C@@H](NC(=O)[C@H](Cc1c[nH]c2ccccc12)NC(=O)[C@H](CCSC)NC(=O)[C@H](Cc1ccc(O)cc1)NC(=O)[C@@H](NC(=O)[C@H](Cc1ccccc1)NC(=O)[C@H](CC(C)C)NC(=O)[C@H](C)NC(=O)[C@H](CC(C)C)NC(=O)[C@H](CC(C)C)NC(=O)[C@H](Cc1c[nH]c2ccccc12)NC(=O)[C@H](Cc1ccc(O)cc1)NC(=O)[C@H](C)NC(=O)[C@H](CC(C)C)NC(=O)[C@H](C)NC(=O)[C@H](C)NC(=O)[C@H](CCSC)NC(C)=O)C(C)C)[C@@H](C)O)C(=O)N[C@@H](CC(C)C)C(=O)N[C@@H](Cc1ccccc1)C(=O)N[C@@H](CCCCN)C(=O)N[C@@H](CCCCN)C(=O)N[C@@H](CCCNC(=N)N)C(=O)N1CCC[C@H]1C(=O)N[C@@H](CCCCN)C(=O)N1CCC[C@H]1C(N)=O [SEQ ID NO: 28] (Ac-MAALAYWLLALFVYMWTDL[Nle]LFKKRPKP-NH2) | 4.59 µM | – | –
Ac-MVKSKIYSWILLLFFAMWSDVGLCKKRPKP-NH2 [SEQ ID NO: 15] | – | 5.2 µM | –
Ac-MVKSKIYSWILLLFFAMWSDVKLKKKRPKP-NH2 [SEQ ID NO: 21] | – | 6.85 µM | –
CCCC[C@H](NC(=O)[C@H](Cc1ccccc1)NC(=O)[C@H](CCC(N)=O)NC(=O)[C@H](Cc1ccccc1)NC(=O)[C@H](C)NC(=O)[C@H](CC(C)C)NC(=O)[C@H](CC(C)C)NC(=O)[C@H](Cc1ccccc1)NC(=O)[C@H](CCC(=O)O)NC(=O)[C@H](CCCNC(=N)N)NC(=O)[C@H](CC(=O)O)NC(=O)[C@H](Cc1ccc(O)cc1)NC(=O)[C@H](CCCNC(=N)N)NC(=O)[C@H](CCCCN)NC(C)=O)C(=O)N[C@H](C(=O)N[C@@H](Cc1ccc(O)cc1)C(=O)N[C@@H](CC(=O)O)C(=O)N[C@@H](CC(C)C)C(=O)NCC(=O)N[C@@H](CC(C)C)C(=O)N[C@@H](CCCNC(=N)N)C(=O)N[C@@H](CCCNC(=N)N)C(=O)N[C@@H](CC(C)C)C(=O)N[C@@H](CCCNC(=N)N)C(=O)N[C@@H](CCC(N)=O)C(=O)N[C@@H](CCCNC(=N)N)C(=O)N[C@@H](CCCNC(=N)N)C(=O)N[C@@H](CCCNC(=N)N)C(=O)N[C@@H](CC(C)C)C(=O)N[C@@H](CCCNC(=N)N)C(=O)N[C@@H](CCCNC(=N)N)C(N)=O)C(C)C [SEQ ID NO: 7] (Ac-KRYDREFLLAFQF[Nle]VYDLGLRRLRQRRRLRR-NH2) | – | – | pIC50 (HH-eIF4E, biotin labeled 4G2 peptide, read-out: Binding affinities expressed as IC50): 6.68
CSCC[C@H](NC(=O)[C@H](Cc1ccc(O)cc1)NC(=O)[C@@H](NC(=O)[C@H](Cc1ccccc1)NC(=O)[C@H](CC(C)C)NC(=O)[C@H](C)NC(=O)[C@H](CC(C)C)NC(=O)[C@H](CC(C)C)NC(=O)[C@H](Cc1c[nH]c2ccccc12)NC(=O)[C@H](Cc1ccc(O)cc1)NC(=O)[C@H](C)NC(=O)[C@H](CC(C)C)NC(C)=O)C(C)C)C(=O)N[C@@H](Cc1c[nH]c2ccccc12)C(=O)N[C@H](C(=O)N[C@@H](CC(=O)O)C(=O)N[C@@H](CC(C)C)C(=O)N[C@@H](CCCNC(=N)N)C(=O)N[C@@H](CC(C)C)C(=O)N[C@@H](CC(C)(C)C)C(=O)N[C@@H](CCCCN)C(=O)N[C@@H](CCCCN)C(=O)N[C@@H](CCCNC(=N)N)C(=O)N1CCC[C@H]1C(=O)N[C@@H](CCCCN)C(=O)N1CCC[C@H]1C(N)=O)[C@@H](C)O [SEQ ID NO: 32] (Ac-LAYWLLALFVYMWTDLRL[tBuAla]KKRPKP-NH2) | 4.73 µM | – | –
Ac-MVKSKYGSWILLLFVAMWSDVGLCKKRPKP-NH2 [SEQ ID NO: 13] | – | 6.89 µM | –
CCCC[C@H](NC(=O)[C@H](Cc1ccc(O)cc1)NC(=O)[C@@H](NC(=O)[C@H](Cc1ccccc1)NC(=O)[C@H](CC(C)C)NC(=O)[C@H](C)NC(=O)[C@H](CC(C)C)NC(=O)[C@H](CC(C)C)NC(=O)[C@H](Cc1c[nH]c2ccccc12)NC(=O)[C@H](Cc1ccc(O)cc1)NC(=O)[C@H](C)NC(=O)[C@H](CC(C)C)NC(=O)[C@H](CC(N)=O)NC(=O)[C@H](C)NC(=O)[C@H](CCSC)NC(C)=O)C(C)C)C(=O)N[C@@H](Cc1c[nH]c2ccccc12)C(=O)N[C@H](C(=O)N[C@@H](CC(=O)O)C(=O)N[C@@H](CC(C)C)C(=O)N[C@@H](CCCNC(=N)N)C(=O)N[C@@H](CC(C)C)C(=O)N[C@@H](Cc1ccccc1)C(=O)N[C@@H](CCCCN)C(=O)N[C@@H](CCCCN)C(=O)N[C@@H](CCCNC(=N)N)C(=O)N1CCC[C@H]1C(=O)N[C@@H](CCCCN)C(=O)N1CCC[C@H]1C(N)=O)[C@@H](C)O [SEQ ID NO: 39] (Ac-MANLAYWLLALFVY[Nle]WTDLRLFKKRPKP-NH2) | 1.75 µM | – | –
Ac-LAYWLLALFVYMWTDLRLAKKRPKP-NH2 [SEQ ID NO: 33] | 6.24 µM | – | –
Ac-LLALFVYMWTDLRLFKKRPKP-NH2 [SEQ ID NO: 51] | – | – | IC50 [3]: 3.75 µM
Ac-NLAYWLLALFVYMWTDLRLFKKRPKP-NH2 [SEQ ID NO: 35] | 5.04 µM | – | –
Ac-LAYWLLALFVAMWTDLRLFKKRPKP-NH2 [SEQ ID NO: 49] | – | – | IC50 [3]: 1.99 µM
Ac-AYWLLALFVYMWTDLRLFKKRPKP-NH2 [SEQ ID NO: 36] | 2.53 µM | – | –
Ac-GAAEAAAYVYDLLLRFLRQRRRLRRERVRA-NH2 [SEQ ID NO: 25] | – | – | pIC50 (Table 2, cell-penetrating peptides with the Y----LL-F motif, read-out: IC50): 4.96

Compound | IC50 [1] | IC50 [2] | further results
Ac-MVKYKIGSLLLFLFVAMWSDVGLCKKRPKP-NH2 [SEQ ID NO: 12] | – | 4.13 µM | –
CCCC[C@H](NC(=O)[C@H](CC(C)C)NC(=O)[C@H](CO)NC(=O)[C@H](C)NC(=O)[C@@H](NC(=O)[C@H](CCCCN)NC(=O)[C@H](Cc1ccc(O)cc1)NC(=O)[C@H](CCCCN)NC(=O)[C@@H](NC(=O)[C@H](CCSC)NC(C)=O)C(C)C)[C@@H](C)CC)C(=O)N[C@@H](CC(C)C)C(=O)N[C@@H](Cc1ccccc1)C(=O)N[C@@H](CC(C)C)C(=O)N[C@@H](Cc1ccccc1)C(=O)N[C@H](C(=O)N[C@@H](C)C(=O)N[C@@H](CCSC)C(=O)N[C@@H](Cc1c[nH]c2ccccc12)C(=O)N[C@@H](CO)C(=O)N[C@@H](CC(=O)O)C(=O)N[C@H](C(=O)N[C@@H](C)C(=O)N[C@@H](CC(C)C)C(=O)N[C@@H](C)C(=O)N[C@@H](CCCCN)C(=O)N[C@@H](CCCCN)C(=O)N[C@@H](CCCNC(=N)N)C(=O)N1CCC[C@H]1C(=O)N[C@@H](CCCCN)C(=O)N1CCC[C@H]1C(N)=O)C(C)C)C(C)C [SEQ ID NO: 45] (Ac-MVKYKIASL[Nle]LFLFVAMWSDVALAKKRPKP-NH2) | – | – | IC50 [3]: 3.06 µM
Ac-KQYDREFLLDFQFMPA-NH2 [SEQ ID NO: 52] | – | – | pIC50 (Table 1, peptides which bind eIF4E but are not cell-penetrating, read-out: IC50): 4.98
Ac-YWLLALFVYMWTDLRLFKKRPKP-NH2 [SEQ ID NO: 37] | 2.9 µM | – | –
Ac-MAALAYWLLALFVYMWTDLLLFKKRPKP-NH2 [SEQ ID NO: 27] | 10.7 µM | – | –
Ac-MANLAYWLLALFVYLWTDLRLFKKRPKP-NH2 [SEQ ID NO: 38] | 3.04 µM | – | –
Ac-WLLALFVYMWTDLRLFKKRPKP-NH2 [SEQ ID NO: 50] | – | – | IC50 [3]: 2.36 µM
Ac-MANLAYWLLALFVYMFTDLRLFKKRPKP-NH2 [SEQ ID NO: 42] | 3.91 µM | – | –
Ac-MYKSKILLWFLVLFVAMWSDVALAKKRPKP-NH2 [SEQ ID NO: 19] | – | 7.21 µM | –
Ac-MVKSKIYSWILLLFFAMWSDVALAKKRPKP-NH2 [SEQ ID NO: 20] | – | 9.96 µM | –
Ac-ANLAYWLLALFVYMWTDLRLFKKRPKP-NH2 [SEQ ID NO: 34] | 2.22 µM | – | –
Ac-MYKSKILLWFLVLFVAMWSDVGLCKKRPKP-NH2 [SEQ ID NO: 14] | – | 3.62 µM | –
Ac-MVKYKIASLLLFLFVAMWSDVKLKKKRPKP-NH2 [SEQ ID NO: 18] | – | 6.71 µM | –
Ac-MANLGYWLLALFVYMWTDLLLFKKRPKP-NH2 [SEQ ID NO: 16] | – | 3.03 µM | –
CCCC[C@H](NC(=O)[C@H](CC(C)C)NC(=O)[C@H](CC(=O)O)NC(=O)[C@@H](NC(=O)[C@H](Cc1c[nH]c2ccccc12)NC(=O)[C@H](CCSC)NC(=O)[C@H](Cc1ccc(O)cc1)NC(=O)[C@@H](NC(=O)[C@H](Cc1ccccc1)NC(=O)[C@H](CC(C)C)NC(=O)[C@H](C)NC(=O)[C@H](CC(C)C)NC(=O)[C@H](CC(C)C)NC(=O)[C@H](Cc1c[nH]c2ccccc12)NC(=O)[C@H](Cc1ccc(O)cc1)NC(=O)[C@H](CCCCN)NC(=O)[C@H](CC(C)C)NC(=O)[C@H](CCCCN)NC(=O)[C@H](C)NC(=O)[C@H](CCSC)NC(C)=O)C(C)C)[C@@H](C)O)C(=O)N[C@@H](CC(C)C)C(=O)N[C@@H](Cc1ccccc1)C(=O)N[C@@H](CCCCN)C(=O)N[C@@H](CCCCN)C(=O)N[C@@H](CCCNC(=N)N)C(=O)N1CCC[C@H]1C(=O)N[C@@H](CCCCN)C(=O)N1CCC[C@H]1C(N)=O [SEQ ID NO: 29] (Ac-MAKLKYWLLALFVYMWTDL[Nle]LFKKRPKP-NH2) | 7.39 µM | – | –
